The values below come from PMC11649784, “Re-design and evaluation of diclofenac-based carborane-substituted prodrugs and their anti-cancer potential” (Scientific Reports, 2024).

One may read the IC50 as the concentration that inhibits the measured activity by half.

The test system of series [1] is MC38 cells. The experiment in a line: Crystal violet (CV) viability assay, MC38. The series is classed as cell-based, murine. To be noted: 72 h. Here is the method: (§1) In a preliminary test, the stability of all compounds dissolved in the cell medium (c = 100 μM, T = [drawing 47] ) for 72 h was validated by HPLC (see Supporting Information). Cell lines were incubated with the respective compounds in a concentration range of 1.56–100 μM for 72 h, and cell viability was measured using 3-(4,5-dimethylthiazol-2-yl)-2,5-diphenyltetrazolium bromide (MTT) and crystal violet (CV) assays. […] As MTT tests gave inconsistent results, possibly due to interference of the compound with mitochondrial respiration, for the further evaluation only the CV results are considered[97],[98].
The biological study was performed on a murine colon adenocarcinoma cell line (MC38), two human colorectal carcinoma cell lines (HCT116 and HT29), and a human fetal lung fibroblast cell line (MRC-5). All cell lines are commercially available and were obtained from the American Type Culture Collection (ATCC). The human cell lines were kept in HEPES-buffered RPMI-1640 medium supplemented with 10 [drawing 141] heat-inactivated FCS, 2 mM L-glutamine, 0.01 [drawing 142] sodium pyruvate, penicillin (100 units mL^−1), and, streptomycin ( [drawing 143] mL^-1). The MC38 cell line was maintained in DMEM medium additionally supplemented with 1 [drawing 144] non-essential amino acids. Cells were grown at [drawing 145] in a humidified atmosphere with 5 [drawing 146] [drawing 147] . Peritoneal exudate cells (PECs) were isolated from healthy C57BL/6 mice (males, n = 3, 3 months old, weight 22–25 g) by performing an ice-cold PBS peritoneal lavage. Mice were sacrificed by cervical dislocation. Cells were cultivated for 4 h when nonadherent population was removed by washing in PBS, and additionally cultivated overnight in HEPES-buffered RPMI-1640 medium supplemented with 5 [drawing 148] heat-inactivated FCS before treatment with experimental drugs. Animal handling and protocol for isolation of PECs were performed according to European Union rules, and the ARRIVE guidelines 2.0.
For the viability tests, MC38, HCT116, and HT29 cells were seeded in 96-well plates at a density of 2 [drawing 149] 103, 5 [drawing 150] 103, and 6 [drawing 151] 10^3 cells/well, respectively. To determine whether the drug affected the viability of healthy, non-malignant cells, MRC-5 and PECs were seeded in 96-well plates at a density of 8 [drawing 152] 103 and 2 [drawing 153] 10^5 cells/well, respectively. For the flow cytometric analyses, MC38 cells were seeded in 6-well plates at 5 [drawing 154] 10^4 cells/well. For morphological assessment of nuclei and the detection of autophagy, MC38 cells were seeded in 2-well chamber slides at 1.5 [drawing 155] 10^4 cells/well.
After 72 h, cell viability was determined using MTT and CV tests. First, the supernatant from the wells was discarded and the cells were incubated with an MTT solution (0.5 mg mL^−1). After half an hour, the purple formazan crystals formed were dissolved in DMSO. For CV staining of the cells, the cells were fixed with 4 [drawing 157] PFA for 10 min and then stained with a 0.02 [drawing 158] CV solution for 15 min, all at room temperature (RT). The cells were then washed with tap water, air-dried and the dye was dissolved in 33 [drawing 159] acetic acid. For both viability tests, the absorbance of the developed colors was measured using an automated microplate reader at 570 nm with a reference wavelength of 670 nm. The results were expressed as a percentage of the control values of the untreated cells, which were arbitrarily set at 100 [drawing 160] . IC50 values, defined as 50 [drawing 161] inhibitory concentration, were calculated using a four-parameter logistic function and presented as mean±SD. All biological experiments were performed in triplicates. To evaluate the nature of the detected autophagy, a combined treatment with compound 3 and the autophagy inhibitors chloroquine (Chlq) and 3-methyladenine (3-MA) was carried out. […] After 72 h, cell viability was determined by CV assay.

Series [2] relates to MC38 cells. The experiment in a line: ApoStat caspase activity, flow cytometry. Format: cell-based, murine. Particulars: IC50 concentration, 72 h. The procedure: For all flow cytometric analyses, MC38 cells were seeded overnight and then treated with the IC50 concentration of compound 3 for 72 h. The cells were harvested, washed, and stained according to the manufacturer’s instructions for each method. To determine whether the compound induces apoptosis, cells were double stained with AnnV-FITC and PI (15 μg mL^–1) for 15 min at RT in the dark. To detect caspase activity, cells were stained with the FITC-conjugated caspase inhibitor ApoStat for 30 min at [drawing 162] . To detect cell proliferation, MC38 cells were stained with CFSE (1 μM) for 10 min at [drawing 163] prior to seeding and then treated as previously described. To detect intracellular production of Reactive oxygen/nitrogen Species (ROS/RNS), MC38 cells were prestained with DHR 123 (1 [drawing 164] M) for 20 min at [drawing 165] , then seeded and exposed to an IC50 concentration of compound 3. After 72 h incubation, all samples were washed, resuspended in PBS and fluorescence intensity was analyzed using a CytoFLEX [drawing 166] flow cytometer (Beckman Coulter, Pasadena, CA, USA), while the data obtained was evaluated using the [drawing 167] software program.
In general terms: In flow cytometry, cells or beads pass a laser one at a time.

Series [3] is described as follows: Stability in cell culture medium by HPLC. The series is classed as physicochemical. The procedure: as §1
Selg et al. Supp. Information
2 Stability Tests for Compound 3
In a 1 mL Eppendorf vial, 10 μL (0.05 μmol) of a freshly prepared 5 mM stock solution of compound 3 in DMSO was mixed with 490 μL of DMEM (Dulbecco's Modified Eagle Medium) containing 10% of fetal bovine serum and stored in an incubation oven at 40 °C for a total 72 hours. After 0, 24 and 72 hours, a 50 μL sample was collected from the mixture and diluted with 250 μL acetonitrile in a 500 μL Eppendorf vial to precipitate the proteins. The mixture was vortexed for 30 s before it was centrifuged for 20 min at 15,000 min-1 and 4 °C. […]
Figure S 2. […] Samples measured at 0, 24 and 72 hours (top to bottom) including the mass spectrum (right) and integration data (bottom). […]

For the substance “1-[2-(7,8-dicarba-nido-undecaborate)]- [drawing 126] H-indolium-2-amine [compound 3]”, in the series with MC38 cells [1] (mean±SD, read-out: IC50 [μM] (n = 3) MC38 CV), the half-inhibitory concentration (IC50) worked out at 9.5 ± 0.4 µM. Besides, in the series on MC38 cells [1] (IC50 concentration of 3 plus 3-MA 1 mM, CV assay), the “cell viability on co-treatment with 3-methyladenine (3-MA)” value was “further viability decrease”. Besides, in the series with MC38 cells [1] (IC50 concentration of 3 plus Chlq 20 μM, CV assay), the “cell viability on co-treatment with chloroquine (Chlq)” value is on record as “further viability decrease”. In addition, the “total caspase activity vs controls” value with MC38 cells [2] is “no significant change in total caspase activity”. Besides, the “stability in cell medium by HPLC” value in series [3] (100 μM, 72 h, compound 3: DMEM with 10% fetal bovine serum, 40 °C, 0, 24 and 72 hours) was “no signs of decomposition”. The “purity (relative area of integrals) after 72 hours in culture medium” value in series [3] (DMEM with 10% fetal bovine serum, 40 °C, 72 hours) is given as “above 95%”.
